Test results published in patent publication US20150005281A1, “PYRIMIDINE-2,4-DIAMINE DERIVATIVES AS KINASE INHIBITORS” (Cellzome Limited, priority 2011, published 2015).

Assays:
Type in all cases: binding
TYK2 = biological target: T1, TYK2 (Homo sapiens, UniProt P29597); test: Kinobeads assay with immunodetection, TYK2; conditions: for IC50: Kinobeads assay, mixed Molt4/Ramos lysate, read-out: Inhibition values (IC50) Tyk2
T1 construct: endogenous in cells; host or cells: Molt4 (ATCC CRL-1582) and Ramos (ATCC CRL-1596) cells; mixed lysate 1:2
T1 sequence (P29597 whole entry): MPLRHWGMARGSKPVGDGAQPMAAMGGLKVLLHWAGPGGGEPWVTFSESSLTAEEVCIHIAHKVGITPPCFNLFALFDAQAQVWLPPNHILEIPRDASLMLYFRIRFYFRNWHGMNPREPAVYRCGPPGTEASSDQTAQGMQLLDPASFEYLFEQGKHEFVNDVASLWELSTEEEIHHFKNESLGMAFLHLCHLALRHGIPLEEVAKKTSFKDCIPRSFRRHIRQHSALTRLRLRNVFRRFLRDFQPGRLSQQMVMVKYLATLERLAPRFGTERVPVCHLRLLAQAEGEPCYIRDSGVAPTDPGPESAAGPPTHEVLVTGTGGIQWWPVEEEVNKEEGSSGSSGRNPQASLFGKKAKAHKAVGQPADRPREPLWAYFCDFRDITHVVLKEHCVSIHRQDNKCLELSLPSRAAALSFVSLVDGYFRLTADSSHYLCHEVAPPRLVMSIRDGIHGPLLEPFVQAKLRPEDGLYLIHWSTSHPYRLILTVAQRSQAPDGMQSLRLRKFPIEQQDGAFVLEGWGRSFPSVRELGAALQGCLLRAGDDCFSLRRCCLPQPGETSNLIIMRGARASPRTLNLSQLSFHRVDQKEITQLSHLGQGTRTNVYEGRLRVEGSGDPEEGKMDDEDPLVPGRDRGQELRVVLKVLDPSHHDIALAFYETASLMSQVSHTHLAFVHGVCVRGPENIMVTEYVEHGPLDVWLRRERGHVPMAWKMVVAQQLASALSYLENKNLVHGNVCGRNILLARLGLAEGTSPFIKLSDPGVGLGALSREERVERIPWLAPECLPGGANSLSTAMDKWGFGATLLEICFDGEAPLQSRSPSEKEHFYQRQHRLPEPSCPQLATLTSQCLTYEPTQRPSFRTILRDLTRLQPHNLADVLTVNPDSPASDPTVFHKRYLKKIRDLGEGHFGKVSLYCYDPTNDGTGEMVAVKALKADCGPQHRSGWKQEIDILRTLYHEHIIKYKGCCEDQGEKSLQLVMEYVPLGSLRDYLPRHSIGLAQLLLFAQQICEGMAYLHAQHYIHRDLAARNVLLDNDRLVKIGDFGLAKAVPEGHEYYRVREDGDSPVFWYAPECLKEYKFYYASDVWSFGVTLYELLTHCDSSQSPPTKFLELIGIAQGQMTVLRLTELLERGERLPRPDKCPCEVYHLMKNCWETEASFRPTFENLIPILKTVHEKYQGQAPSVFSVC
Outline: (§1)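 Lysates of Molt4 and Ramos cells, combined 1:2 and diluted to 10 mg/mL in Tris pH 7.4 buffer with 0.8% NP40, are incubated for 3 h in the cold with compound and the affinity matrix. Beads are washed, eluted in SDS buffer, and kinases are quantified by infrared immunodetection to give IC50s.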

JAK3 = biological target: T2, JAK3 (Homo sapiens, UniProt P52333); test: Kinobeads assay with immunodetection, JAK3; conditions: for IC50: Kinobeads assay, mixed Molt4/Ramos lysate, read-out: Inhibition values (IC50) JAK3
T2 construct: endogenous in cells; host or cells: Molt4 (ATCC CRL-1582) and Ramos (ATCC CRL-1596) cells; mixed lysate 1:2
T2 sequence (P52333 1-1124): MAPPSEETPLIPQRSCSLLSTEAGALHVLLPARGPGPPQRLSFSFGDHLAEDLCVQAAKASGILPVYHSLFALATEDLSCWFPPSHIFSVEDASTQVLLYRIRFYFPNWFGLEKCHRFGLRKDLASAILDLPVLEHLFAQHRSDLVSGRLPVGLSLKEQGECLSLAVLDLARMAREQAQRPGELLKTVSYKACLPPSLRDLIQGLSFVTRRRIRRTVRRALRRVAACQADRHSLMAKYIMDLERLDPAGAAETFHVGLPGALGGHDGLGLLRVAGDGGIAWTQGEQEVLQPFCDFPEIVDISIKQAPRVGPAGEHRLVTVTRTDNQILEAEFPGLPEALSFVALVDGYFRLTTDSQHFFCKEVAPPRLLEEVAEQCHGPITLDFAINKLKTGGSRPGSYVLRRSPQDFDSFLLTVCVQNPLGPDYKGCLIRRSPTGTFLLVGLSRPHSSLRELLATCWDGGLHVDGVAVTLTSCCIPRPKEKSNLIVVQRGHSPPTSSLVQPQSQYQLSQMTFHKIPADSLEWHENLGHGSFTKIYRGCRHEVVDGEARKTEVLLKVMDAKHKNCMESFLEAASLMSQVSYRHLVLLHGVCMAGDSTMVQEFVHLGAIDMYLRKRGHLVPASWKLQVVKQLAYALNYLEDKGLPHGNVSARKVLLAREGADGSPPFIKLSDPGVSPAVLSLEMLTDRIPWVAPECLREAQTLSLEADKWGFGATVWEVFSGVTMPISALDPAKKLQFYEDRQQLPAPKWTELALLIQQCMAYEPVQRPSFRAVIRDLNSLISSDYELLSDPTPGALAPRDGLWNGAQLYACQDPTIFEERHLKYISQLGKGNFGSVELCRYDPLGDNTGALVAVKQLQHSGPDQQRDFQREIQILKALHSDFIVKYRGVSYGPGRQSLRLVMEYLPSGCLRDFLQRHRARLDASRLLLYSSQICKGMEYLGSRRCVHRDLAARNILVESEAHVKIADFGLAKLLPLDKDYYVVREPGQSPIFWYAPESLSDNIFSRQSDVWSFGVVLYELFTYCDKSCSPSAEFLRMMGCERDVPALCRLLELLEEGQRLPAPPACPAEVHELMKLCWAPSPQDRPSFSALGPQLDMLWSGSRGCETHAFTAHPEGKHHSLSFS
Outline: as §1

JAK1 = biological target: T3, JAK1 (Homo sapiens, UniProt P23458); test: Kinobeads assay with immunodetection, JAK1; conditions: for IC50: Kinobeads assay, mixed Molt4/Ramos lysate, read-out: Inhibition values (IC50) JAK1
T3 construct: endogenous in cells; host or cells: Molt4 (ATCC CRL-1582) and Ramos (ATCC CRL-1596) cells; mixed lysate 1:2
T3 sequence (P23458 whole entry): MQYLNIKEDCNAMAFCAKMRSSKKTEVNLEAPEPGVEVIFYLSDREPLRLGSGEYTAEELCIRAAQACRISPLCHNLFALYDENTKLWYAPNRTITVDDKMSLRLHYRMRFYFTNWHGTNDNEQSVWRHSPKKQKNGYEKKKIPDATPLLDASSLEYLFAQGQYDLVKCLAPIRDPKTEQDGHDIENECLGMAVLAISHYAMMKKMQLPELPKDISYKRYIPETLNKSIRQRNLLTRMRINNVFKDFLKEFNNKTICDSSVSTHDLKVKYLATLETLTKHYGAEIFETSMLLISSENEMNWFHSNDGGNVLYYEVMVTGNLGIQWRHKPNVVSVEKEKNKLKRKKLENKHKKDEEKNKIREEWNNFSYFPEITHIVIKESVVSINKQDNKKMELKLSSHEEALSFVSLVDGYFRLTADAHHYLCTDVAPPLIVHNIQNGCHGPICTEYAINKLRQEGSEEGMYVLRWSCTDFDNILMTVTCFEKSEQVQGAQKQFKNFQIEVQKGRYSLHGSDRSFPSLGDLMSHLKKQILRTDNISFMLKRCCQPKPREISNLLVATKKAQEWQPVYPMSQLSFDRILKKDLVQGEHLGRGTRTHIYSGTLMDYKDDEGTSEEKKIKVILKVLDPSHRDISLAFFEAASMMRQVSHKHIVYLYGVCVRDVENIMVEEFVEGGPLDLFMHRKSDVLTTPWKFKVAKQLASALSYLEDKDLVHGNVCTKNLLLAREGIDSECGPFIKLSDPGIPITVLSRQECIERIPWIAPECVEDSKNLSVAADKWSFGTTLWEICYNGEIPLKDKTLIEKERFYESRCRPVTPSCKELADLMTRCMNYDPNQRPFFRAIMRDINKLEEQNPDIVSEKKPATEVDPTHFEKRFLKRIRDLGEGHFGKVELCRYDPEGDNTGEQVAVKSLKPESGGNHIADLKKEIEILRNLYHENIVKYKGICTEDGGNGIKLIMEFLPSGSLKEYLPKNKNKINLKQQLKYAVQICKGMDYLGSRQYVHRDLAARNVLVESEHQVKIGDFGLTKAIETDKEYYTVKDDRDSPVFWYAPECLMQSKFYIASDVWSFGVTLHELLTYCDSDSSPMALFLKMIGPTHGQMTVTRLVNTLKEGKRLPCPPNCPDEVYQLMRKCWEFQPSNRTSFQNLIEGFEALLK
Outline: as §1

JAK2 = biological target: T4, JAK2 (Homo sapiens, UniProt O60674); test: Kinobeads assay with immunodetection, JAK2; conditions: mixed Molt4/Ramos lysate, read-out: Inhibition values (IC50) JAK2
T4 construct: endogenous in cells; host or cells: Molt4 (ATCC CRL-1582) and Ramos (ATCC CRL-1596) cells; mixed lysate 1:2
T4 sequence (O60674 whole entry): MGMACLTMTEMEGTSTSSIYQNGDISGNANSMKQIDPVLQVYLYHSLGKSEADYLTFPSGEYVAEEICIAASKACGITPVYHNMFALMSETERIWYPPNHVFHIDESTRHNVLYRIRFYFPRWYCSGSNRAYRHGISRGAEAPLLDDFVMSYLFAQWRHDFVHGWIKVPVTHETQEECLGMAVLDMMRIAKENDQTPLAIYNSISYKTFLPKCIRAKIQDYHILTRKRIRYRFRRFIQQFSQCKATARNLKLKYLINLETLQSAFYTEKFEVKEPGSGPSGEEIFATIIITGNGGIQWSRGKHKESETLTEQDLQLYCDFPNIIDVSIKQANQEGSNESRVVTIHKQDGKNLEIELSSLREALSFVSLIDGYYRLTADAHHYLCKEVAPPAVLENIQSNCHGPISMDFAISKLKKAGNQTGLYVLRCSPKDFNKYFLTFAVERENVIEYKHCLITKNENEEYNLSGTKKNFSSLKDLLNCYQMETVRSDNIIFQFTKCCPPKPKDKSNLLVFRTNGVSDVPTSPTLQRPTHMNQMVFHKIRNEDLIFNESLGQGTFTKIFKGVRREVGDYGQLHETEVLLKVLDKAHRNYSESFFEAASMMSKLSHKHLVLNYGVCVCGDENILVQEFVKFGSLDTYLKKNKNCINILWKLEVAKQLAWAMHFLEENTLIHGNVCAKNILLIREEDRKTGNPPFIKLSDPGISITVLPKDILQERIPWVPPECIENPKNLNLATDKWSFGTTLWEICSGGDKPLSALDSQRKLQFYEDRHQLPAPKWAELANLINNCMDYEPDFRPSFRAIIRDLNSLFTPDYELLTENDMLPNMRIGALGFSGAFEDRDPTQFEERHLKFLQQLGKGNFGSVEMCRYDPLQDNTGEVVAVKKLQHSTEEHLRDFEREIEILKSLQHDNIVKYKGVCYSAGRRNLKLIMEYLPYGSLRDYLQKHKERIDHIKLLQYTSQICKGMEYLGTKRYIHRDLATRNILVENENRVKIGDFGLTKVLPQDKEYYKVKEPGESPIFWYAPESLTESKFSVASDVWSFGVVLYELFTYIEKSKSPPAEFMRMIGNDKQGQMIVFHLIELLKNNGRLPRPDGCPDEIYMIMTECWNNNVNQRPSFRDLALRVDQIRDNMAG
Outline: as §1

| IC50 (TYK2) [nM] | IC50 (JAK3) [nM] | Selectivity ratio over JAK2, JAK1 (JAK1) | IC50 (JAK1) [nM] | IC50 (JAK2) [nM] | Selectivity ratio over JAK2, JAK3 (JAK3) | Selectivity ratio over JAK2, Tyk2 (TYK2) | Structure (SMILES) |
| --- | --- | --- | --- | --- | --- | --- | --- |
| < 100 | 100 to 1000 | JAK1 = 100 | < 100 | 1000 to 10000 | – | – | Cn1cc(Nc2ncc(Cl)c(NC[C@@H]3C[C@H](F)CN3CCCS(C)(=O)=O)n2)cn1 [Example 132, 5-chloro-N^4-(((2S,4S)-4-fluoro-1-(3-(methylsulfonyl)propyl)pyrrolidin-2-yl)methyl)-N^2-(1-methyl-1H-pyrazol-4-yl)pyrimidine-2,4-diamine] |
| < 100 | < 100 | JAK1 = 8 | 100 to 1000 | 1000 to 10000 | – | – | CC(=O)N1CCC[C@@H]1CNc1nc(Nc2cnn(C)c2)ncc1Cl [Example 1, (R)-1-(2-(((5-chloro-2-((1-methyl-1H-pyrazol-4-yl)amino)pyrimidin-4-yl)amino)methyl)pyrrolidin-1-yl)ethanone] |
| 100 to 1000 | < 100 | JAK1 = 88 | < 100 | 1000 to 10000 | – | – | Cn1cc(Nc2ncc(Cl)c(NC[C@@H]3C[C@H](F)CN3C(=O)CCC#N)n2)cn1 [Example 110, 4-((2S,4S)-2-(((5-chloro-2-((1-methyl-1H-pyrazol-4-yl)amino)pyrimidin-4-yl)amino)methyl)-4-fluoropyrrolidin-1-yl)-4-oxobutanenitrile] |
| 100 to 1000 | < 100 | – | 100 to 1000 | 1000 to 10000 | JAK3 = 57 | – | C=CS(=O)(=O)N1CCCC[C@H]1CNc1nc(Nc2cnn(C)c2)ncc1Cl [Example 38, (S)-5-chloro-N^2-(1-methyl-1H-pyrazol-4-yl)-N^4-((1-(vinylsulfonyl)piperidin-2-yl)methyl)pyrimidine-2,4-diamine] |
| < 100 | 1000 to 10000 | – | < 100 | 1000 to 10000 | – | Tyk2 = 145 | Cn1cc(Nc2nccc(NC[C@H]3CCCN3C(=O)CCC#N)n2)cn1 [Example 93, (R)-4-(2-(((2-((1-methyl-1H-pyrazol-4-yl)amino)pyrimidin-4-yl)amino)methyl)pyrrolidin-1-yl)-4-oxobutanenitrile] |
| > 10000 | > 10000 | – | > 10000 | > 10000 | – | – | Cn1cc(Nc2ncc(Cl)c(NCC3CN(S(C)(=O)=O)C3)n2)cn1 [Example 18, 5-chloro-N^2-(1-methyl-1H-pyrazol-4-yl)-N^4-((1-(methylsulfonyl)azetidin-3-yl)methyl)pyrimidine-2,4-diamine] |
| < 100 | < 100 | – | 100 to 1000 | 1000 to 10000 | – | Tyk2 = 14 | C=CS(=O)(=O)N1CCC[C@H]1CNc1nc(Nc2cnn(C)c2)ncc1Cl [Example 14, (S)-5-chloro-N^2-(1-methyl-1H-pyrazol-4-yl)-N^4-((1-(vinylsulfonyl)pyrrolidin-2-yl)methyl)pyrimidine-2,4-diamine] |
| 100 to 1000 | 100 to 1000 | – | < 100 | 1000 to 10000 | JAK3 = 54 | – | Cn1cc(Nc2ncc(Cl)c(NC[C@@H]3CCCCN3S(C)(=O)=O)n2)cn1 [Example 36, (S)-5-chloro-N^2-(1-methyl-1H-pyrazol-4-yl)-N^4-((1-(methylsulfonyl)piperidin-2-yl)methyl)pyrimidine-2,4-diamine] |
| < 100 | < 100 | – | < 100 | 100 to 1000 | JAK3 = 53 | – | Cn1cc(Nc2ncc(Cl)c(NC[C@H]3CCCN3S(=O)(=O)C3CC3)n2)cn1 [Example 98, (R)-5-chloro-N^4-((1-(cyclopropylsulfonyl)pyrrolidin-2-yl)methyl)-N^2-(1-methyl-1H-pyrazol-4-yl)pyrimidine-2,4-diamine] |
| < 100 | 100 to 1000 | – | < 100 | 1000 to 10000 | – | Tyk2 = 28 | Cl.Cn1cc(Nc2ncc(F)c(NC[C@@H]3CCCN3S(C)(=O)=O)n2)cn1 [Example 75, (S)-5-fluoro-N2-(1-methyl-1H-pyrazol-4-yl)-N4-((1-(methylsulfonyl)pyrrolidin-2-yl)methyl)pyrimidine-2,4-diamine Hydrochloride] |
| < 100 | < 100 | – | < 100 | 100 to 1000 | JAK3 = 23 | – | Cn1cc(Nc2ncc(Cl)c(NC[C@H]3CCCN(C(=O)CCC#N)C3)n2)cn1 [Example 138, (R)-4-(3-(((5-chloro-2-((1-methyl-1H-pyrazol-4-yl)amino)pyrimidin-4-yl)amino)methyl)piperidin-1-yl)-4-oxobutanenitrile] |
| < 100 | 100 to 1000 | – | 100 to 1000 | > 10000 | – | Tyk2 = 435 | CC(C)NC(=O)Cn1cc(Nc2nccc(NC[C@H]3CCCN3CCS(C)(=O)=O)n2)cn1 [Example 84, (R)—N-isopropyl-2-(4-((4-(((1-(2-(methylsulfonyl)ethyl)pyrrolidin-2-yl)methyl)amino)pyrimidin-2-yl)amino)-1H-pyrazol-1-yl)acetamide] |
| < 100 | 100 to 1000 | JAK1 = 33 | < 100 | 1000 to 10000 | – | – | Cc1cnc(Nc2cnn(C)c2)nc1NC[C@@H]1CCCN1CCS(C)(=O)=O [Example 105, (S)-5-methyl-N^2-(1-methyl-1H-pyrazol-4-yl)-N^4-((1-(2-(methylsulfonyl)ethyl)pyrrolidin-2-yl)methyl)pyrimidine-2,4-diamine] |
| 100 to 1000 | 1000 to 10000 | JAK1 = 42 | 100 to 1000 | 1000 to 10000 | – | – | CC(=O)N1CC[C@H](CNc2nc(Nc3cnn(C)c3)ncc2Cl)C1 [Example 20, (R)-1-(3-(((5-chloro-2-((1-methyl-1H-pyrazol-4-yl)amino)pyrimidin-4-yl)amino)methyl)pyrrolidin-1-yl)ethanone] |
| 100 to 1000 | 100 to 1000 | JAK1 = 83 | < 100 | 1000 to 10000 | – | – | Cc1cnc(Nc2cnn(CC(F)F)c2)nc1NC[C@H]1CCN(CCS(C)(=O)=O)C1 [Example 127, (R)—N^2-(1-(2,2-difluoroethyl)-1H-pyrazol-4-yl)-5-methyl-N^4-((1-(2-(methylsulfonyl)ethyl)pyrrolidin-3-yl)methyl)pyrimidine-2,4-diamine] |
| 1000 to 10000 | 1000 to 10000 | – | 100 to 1000 | > 10000 | – | – | C=CC(=O)N1CCCC[C@H]1CNc1nc(Nc2cnn(C)c2)ncc1Cl [Example 34, (S)-1-(2-(((5-chloro-2-((1-methyl-1H-pyrazol-4-yl)amino)pyrimidin-4-yl)amino)methyl)piperidin-1-yl)prop-2-en-1-one] |
| 1000 to 10000 | 1000 to 10000 | – | 100 to 1000 | > 10000 | – | – | CN(C)C(=O)Cn1cc(Nc2ncc(Cl)c(NC[C@H]3CCCN3)n2)cn1 [Example 64, (R)-2-(4-(5-chloro-4-(pyrrolidin-2-ylmethylamino)pyrimidin-2-ylamino)-1H-pyrazol-1-yl)-N,N-dimethylacetamide] |
| 100 to 1000 | 100 to 1000 | – | 100 to 1000 | 1000 to 10000 | JAK3 = 52 | – | Cn1cc(Nc2ncc(Cl)c(NC[C@H]3CCCN3CCO)n2)cn1 [Example 48, (R)-2-(2-((5-chloro-2-(1-methyl-1H-pyrazol-4-ylamino)pyrimidin-4-ylamino)methyl)pyrrolidin-1-yl)ethanol] |
| < 100 | < 100 | – | < 100 | 100 to 1000 | JAK3 = 85 | – | Cn1cc(Nc2ncc(Cl)c(NC[C@H]3CCCN3CC#N)n2)cn1 [Example 131, (R)-2-(2-(((5-chloro-2-((1-methyl-1H-pyrazol-4-yl)amino)pyrimidin-4-yl)amino)methyl)pyrrolidin-1-yl)acetonitrile] |
